Data on three molecules can be found in patent US20090118316A1, “Methods for Augmenting Bone” (PFZER INC., priority 2004, published 2009).

Experiment [1] concerns ovariectomized (OVX) rat model. The experiment can be described thus: OVX rat model: pQCT analysis of distal femoral metaphysis. The conditions noted are these: OVX rats vs vehicle, PF—X 10 or 30 mg/kg/d, 28 days; for cortical bone content / total bone mineral content / total bone mineral density: EE 30 μg/kg/d. Type of experiment: in vivo.
The subject of experiment [2] is ovariectomized (OVX) rat model. The experiment can be described thus: OVX rat model: trabecular bone histomorphometry of proximal tibial metaphysis. It counts as in vivo. The conditions noted are these: OVX rats vs vehicle, PF—X 30 mg/kg/d, 28 days; for bone formation rate/BV / bone formation rate/TV / mineral apposition rate / osteoclast number / osteoclast surface / percent mineralizing surface: EE 30 μg/kg/d.

The nature of experiment [3]: OVX rat model: body weight. It counts as in vivo. Conditions: OVX rats, oral gavage 28 days, vs vehicle-treated OVX; PF—X (di-hydrochloride salt) 10 or 30 mg/kg/d, EE 30 μg/kg/d.
Experiment [4] concerns ovariectomized (OVX) rat model. Kind of experiment: OVX rat model: serum osteocalcin by RIA. The conditions noted are these: OVX rats, 2 weeks post-treatment, vs vehicle-treated OVX rats. It counts as in vivo.
The subject of experiment [5] is human mesenchymal stem cells. The experiment can be described thus: Calcium deposition in human MSC. It counts as cell-based. Conditions: human MSCs, compared to OS media alone; PF—Y especially the two lower doses (FIG. 5). The method, then:
(§1) Calcium Assay. Calcium deposited by the cells was measured using a diagnostic kit (Sigma #587A). Briefly, cells were rinsed twice with DPBS and hydrolyzed in 0.5 N HCl rotating overnight at 4°. Cells were then scraped and cellular debris was pelleted. Supernatants were used to measure calcium levels following manufacturer's protocol. The absorbance at 570 nm was determined and compared to calcium standards. Calcium levels were corrected for the DNA content in each well.
(§2) Human mesenchymal stem cells were cultured in DMEM-high glucose containing 10% FBS and 10 mM l-glutamine and plated in six well dishes at a density of 3×10^4 cells/well. The day after plating, these cultures were treated and analyzed as in Example 2.

For experiment [6], the system named is murine mesenchymal stem cells. The experiment can be described thus: Alkaline phosphatase activity in murine MSC. Type of experiment: cell-based, mouse. Conditions: murine MSCs, OS media, 1 μM dexamethasone or increasing doses of PF—Y; units per culture or per μg DNA (FIG. 2). The method, then:
(§3) Quantitative Alkaline Phosphatase Measurement. For quantitative alkaline phosphatase measurements, cells were washed twice with Dulbecco's phosphate buffered saline (DPBS) followed by incubation with substrate buffer (50 mM glycine, 1 mM magnesium chloride, pH 10.5) containing 1.3 mg/ml p-nitrophenol phosphate. The levels of alkaline phosphatase activity were determined by measuring the absorbance at 405 nm and compared to p-nitrophenol standards. The level of alkaline phosphatase activity was corrected for the amount of DNA in each sample.
(§4) Murine mesenchymal stem cells isolated from femurs and tibiae of C57BI/6 mice were cultured in alpha-MEM containing 10% fetal bovine serum (FBS) and plated in six well dishes at a density of […]. The day after plating, the media were removed and replaced with media alone, in media with OS, or in OS media containing either 1 μM of dexamethasone or increasing doses of PF—Y for 21 days. “OS” medium” contains 50 μM ascorbic acid and 10 mM β-glycerophosphate. Media were refreshed every 3 days. The amount of alkaline phosphatase was measured on day 7 and day 21. The amounts of secreted calcium were determined only on day 21. The VonKossa stain was done after staining day 21 samples for alkaline phosphatase.

The subject of experiment [7] is murine mesenchymal stem cells. Kind of experiment: Calcium deposition in murine MSC. The conditions noted are these: murine MSCs, OS media, day 21, 1 μM dexamethasone or increasing doses of PF—Y; μg per culture or per μg DNA (FIG. 3). It counts as cell-based, mouse. The method, then: as §1, §4
The next experiment concerns the target T1, PYK2 (Mus musculus, UniProt Q9QVP9).
T1 construct: endogenous in cells; host or cells: murine MC3T3 cells
Kind of experiment: AIF-stimulated phosphorylation of PYK2 tyrosine 402 in MC3T3 cells (immunoprecipitation, SDS-PAGE). Type of experiment: cell-based. Conditions: Aluminum fluorate (AIF), 3 mM PF—Y (FIG. 7). The method, then: Murine MC3T3 cells were treated with Aluminum fluorate (AIF) alone or in the presence of 3 mM PF—Y. Cells were lysed and the amount of total PYK2 and phosphorylated PYK2 (P-Y402) were determined by immunoprecipitation with antibodies that recognize total PYK2 or phosphorylated Tyr 402 PYK2 followed by SDS-PAGE.

The next experiment relates to murine MC3T3 cells. The experiment can be described thus: Alkaline phosphatase activity in MC3T3 cells. It counts as cell-based, mouse. Conditions: OS media with increasing doses of PF—Y, units per plate or per μg DNA (FIG. 6). The method, then:
as §3
MC3T3 cells were cultured in alpha-MEM media containing 10% FBS and plated in six well dishes at a density of 5×10^4 cells/well. The day after plating, the media were removed and OS media with increasing doses of PF—Y were added. Media were refreshed every 3 days. The amount of alkaline phosphatase was measured as in Example 2 and 3.

Experiment [8] has as its system human mesenchymal stem cells. Kind of experiment: Alkaline phosphatase activity in human MSC. It counts as cell-based. The conditions noted are these: human MSCs, OS media; units per μg DNA (FIG. 4). As for the experimental part:
as §3, §2

Entries after “also recorded” stand apart in the source; their conditions may differ.

T1 sequence (Q9QVP9 whole entry): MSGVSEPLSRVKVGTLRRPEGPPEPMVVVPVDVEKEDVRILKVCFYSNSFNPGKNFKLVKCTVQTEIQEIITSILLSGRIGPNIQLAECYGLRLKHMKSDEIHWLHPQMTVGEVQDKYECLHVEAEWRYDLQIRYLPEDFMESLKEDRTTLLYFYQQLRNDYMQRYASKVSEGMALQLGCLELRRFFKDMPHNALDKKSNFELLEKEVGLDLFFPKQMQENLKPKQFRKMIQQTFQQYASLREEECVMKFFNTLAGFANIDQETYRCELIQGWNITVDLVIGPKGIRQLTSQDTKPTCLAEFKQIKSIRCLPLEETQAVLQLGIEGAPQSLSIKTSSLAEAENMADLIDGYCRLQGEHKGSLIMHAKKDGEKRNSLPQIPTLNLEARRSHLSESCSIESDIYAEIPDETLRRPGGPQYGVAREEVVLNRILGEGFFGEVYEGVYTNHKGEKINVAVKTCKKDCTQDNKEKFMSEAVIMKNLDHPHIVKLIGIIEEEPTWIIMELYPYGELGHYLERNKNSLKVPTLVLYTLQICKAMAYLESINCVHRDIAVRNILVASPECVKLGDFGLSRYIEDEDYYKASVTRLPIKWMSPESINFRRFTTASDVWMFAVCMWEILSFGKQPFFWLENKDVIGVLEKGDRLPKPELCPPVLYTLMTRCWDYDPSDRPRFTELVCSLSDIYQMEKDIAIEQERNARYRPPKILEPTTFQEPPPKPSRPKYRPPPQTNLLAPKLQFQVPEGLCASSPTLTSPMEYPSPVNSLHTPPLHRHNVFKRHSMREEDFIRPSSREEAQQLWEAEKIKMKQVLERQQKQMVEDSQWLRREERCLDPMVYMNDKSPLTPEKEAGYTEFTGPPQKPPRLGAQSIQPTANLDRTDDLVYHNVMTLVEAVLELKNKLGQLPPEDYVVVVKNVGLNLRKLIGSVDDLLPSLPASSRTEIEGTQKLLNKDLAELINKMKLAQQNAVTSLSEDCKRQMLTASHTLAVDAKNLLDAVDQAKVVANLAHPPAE

For `C#C[C@]1(O)CC[C@H]2[C@@H]3CCc4cc(O)ccc4[C@H]3CC[C@@]21C` [EE, 17[…]-ethynyl estradiol, reference compound], in [1], the cortical bone content entry is “higher”, the “total bone mineral content” value is listed as “higher” and the “total bone mineral density” value is “higher”. Moreover, in experiment [2], the “bone formation rate/BV” value is “decreases”, the “bone formation rate/TV” value is listed as “decreases”, the mineral apposition rate result is reported as “decreases” and the osteoclast number entry is given as “decreases”. In experiment [2], the osteoclast surface result was “decreases” and the percent mineralizing surface entry is reported as “decreases”. Besides, the body weight entry in experiment [3] is recorded as “prevented OVX-induced weight gain”. The Serum osteocalcin entry in experiment [4] was “significantly decreased”.

As for `CN(c1ccccc1CNc1nc(Nc2ccc3c(c2)CC(=O)N3)ncc1C(F)(F)F)S(C)(=O)=O` [PF—X], in [1], the total bone area result is given as “significant increases”, the trabecular bone density result is reported as “significant increases”, the cortical bone content result is given as “significant increases” and the “total bone mineral content” value is “significant increases”. In addition, in experiment [1], the “total bone mineral density” value was “significant increases”. In addition, in experiment [2], the trabecular bone volume result is “significant increase”, the trabecular thickness entry was “significant increase”, the “bone formation rate/BV” value is on record as “significant increase” and the “bone formation rate/TV” value is “significant increase”. In experiment [2], the mineral apposition rate entry is “significant increase”, the osteoclast number result is recorded as “significant decrease”, the osteoclast surface entry is on record as “significant decrease” and the percent mineralizing surface result is recorded as “significant increase”. Further, the body weight result in [3] is listed as “No significant difference”. The Serum osteocalcin result in [4] is “significantly increased”.

Regarding `Cc1cc(C)c(/C=C2\C(=O)Nc3ccc(O)cc32)[nH]1` [PF—Y], the calcium deposition result in experiment [5] and in experiment [7] was “increased” each time. The alkaline phosphatase activity result (in experiment [6]; with murine MC3T3 cells; in experiment [8]) was “elevated” each time. Besides, the “AIF-induced phosphorylation of tyrosine 402 of PYK2” value at PYK2 is reported as “inhibited; also recorded: inhibition”.
